In publication PMC7802075 (ACS Infectious Diseases, 2020):
Like-named read-outs stand apart in the source and are kept apart here.

Key:
[1] = test system: L. major (FV1) promastigotes; assay: Antipromastigote resazurin assay, L. major (FV1) wild type; assay type: cell-based, Leishmania major
[2] = biological target: T1, LmjIPCS (inositol phosphorylceramide synthase from L. major) (Leishmania major, UniProt E9AFX2); assay: biochemical; assay type: biochemical; parameters: inhibition: dose or concentration left out as unconfirmed; conditions: for inhibition: read-out: inhibition LmjIPCS; for inhibition at 20000 µM: read-out: 20mM inhibition LmjIPCS
T1 sequence (E9AFX2 1-338): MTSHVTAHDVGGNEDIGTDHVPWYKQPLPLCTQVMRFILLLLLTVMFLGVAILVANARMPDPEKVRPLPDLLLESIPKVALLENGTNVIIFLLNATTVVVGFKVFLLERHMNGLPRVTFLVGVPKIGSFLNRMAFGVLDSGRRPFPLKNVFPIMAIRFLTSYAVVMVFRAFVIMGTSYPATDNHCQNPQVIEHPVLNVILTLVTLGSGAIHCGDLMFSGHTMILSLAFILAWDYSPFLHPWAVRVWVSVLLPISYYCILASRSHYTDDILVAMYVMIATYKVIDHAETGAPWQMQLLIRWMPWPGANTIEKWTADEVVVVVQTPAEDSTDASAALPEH

[3] = single concentration 20mM as printed, screening of NINDS set, sheet Screen 1
[4] = screening of NINDS set, sheet Screen 1

CCN(CC)CCOc1ccc(C(=C(Cl)c2ccccc2)c2ccccc2)cc1 [clomiphene 4, clomiphene, reference compound]
10mM inhibition L. major [1]: 65%
ED50 vs L. major [1]: 6.57 mM

CN1[C@@H]2CC[C@H]1C[C@@H](OC(c1ccccc1)c1ccccc1)C2 [BENZTROPINE]
10mM inhibition L. major [1]: <5%

CN1CCN(CCCN2c3ccccc3Sc3ccc(Cl)cc32)CC1 [prochlorperazine edisylate 11, prochlorperazine edisylate, reference compound]
10mM inhibition L. major [1]: 11%
ED50 vs L. major [1]: 12.90 mM

Fc1ccc(C(c2ccc(F)cc2)N2CCN(C/C=C/c3ccccc3)CC2)cc1 [flunarizine 7, flunarizine, reference compound]
10mM inhibition L. major [1]: 56%
ED50 vs L. major [1]: 1.73 mM

CN[C@H]1CC[C@@H](c2ccc(Cl)c(Cl)c2)c2ccccc21 [sertraline 13, sertraline, reference compound]
ED50 vs L. major [1]: 14.58 mM

CN(C)CCC=C1c2ccccc2COc2ccccc21 [doxepin 5, doxepin, reference compound]
10mM inhibition L. major [1]: 44%
ED50 vs L. major [1]: 30.00 mM

CC(C)NC[C@@H](O)COc1cccc2ccccc12 [DEXPROPRANOLOL]
10mM inhibition L. major [1]: <5%

CN(C)CCCN1c2ccccc2CCc2ccccc21 [IMIPRAMINE]
10mM inhibition L. major ([1]; NINDS set screen against L. major promastigotes, single concentration printed as 10mM): <5%

CNCCCC12CCC(c3ccccc31)c1ccccc12 [MAPROTILINE]
10mM inhibition L. major [1]: <5%

Clc1ccc(COC(Cn2ccnc2)c2ccc(Cl)cc2Cl)c(Cl)c1 (stereo not drawn) [MICONAZOLE]
10mM inhibition L. major [1]: <5%

CC(C)NCC(O)COc1cccc2ccccc12 (stereo not drawn) [propranolol 12, propranolol, reference compound]
10mM inhibition L. major [1]: 84%
ED50 vs L. major [1]: 4.91 mM

O=C(CCCCCCCCCCCCC1CCCC1)Nc1ccc(S(=O)(=O)c2ccc(NC(=O)CCCCCCCCCCCCC3CCCC3)cc2)cc1 [CHAULMOSULFONE]
inhibition ([2]; NINDS set screen): 32%

SPIRAMYCIN
20mM inhibition LmjIPCS [2, 3]: 10%

O=C(/C=C/c1ccc(O)cc1)c1ccc(O)cc1O [ISOLIQUIRITIGENIN]
inhibition [2]: 11%

O=c1c2ccccc2[se]n1-c1ccccc1 [EBSELEN]
20mM inhibition LmjIPCS [2]: 42%

C#C[C@]1(O)CC[C@H]2[C@@H]3CCC4=Cc5oncc5C[C@]4(C)[C@H]3CC[C@@]21C [DANAZOL]
inhibition [2]: 19%

CN(C)CCc1c[nH]c2ccc(C[C@H]3COC(=O)N3)cc12 [ZOLMITRIPTAN]
20mM inhibition LmjIPCS [2]: 44%

CC(C)(Oc1ccc(Cl)cc1)C(=O)O [CLOFIBRIC ACID]
20mM inhibition LmjIPCS [2]: 56%

CC1(C)O[C@@H]2C[C@H]3[C@@H]4C[C@H](F)C5=CC(=O)C=C[C@]5(C)[C@H]4[C@@H](O)C[C@]3(C)[C@]2(C(=O)CO)O1 [FLUNISOLIDE]
inhibition at 20000 µM [2]: -10%

S=c1[nH]cnc2nc[nH]c12 [MERCAPTOPURINE]
inhibition [2, 4]: 6%

Cc1cn([C@H]2C[C@H](N=[N+]=[N-])[C@@H](CO)O2)c(=O)[nH]c1=O [ZIDOVUDINE [AZT]]
20mM inhibition LmjIPCS [2, 3]: 7%

O=C(O)c1cccnc1 [NIACIN]
inhibition at 20000 µM [2]: 15%

O=C(O)C(O)C(O)C(=O)O.OCc1cccnc1 (stereo not drawn) [NICOTINYL]
20mM inhibition LmjIPCS [2]: 6%

CSC(N)=NCCC[C@H](N)C(=O)O [S-METHYL-L-THIOCITRULLINE ACETATE]
inhibition [2, 4]: 10%

NC(=O)CN1CCCC1=O
inhibition [2]: 6%

C=C(C)[C@@H]1CC[C@]2(C(=O)O)CC[C@]3(C)[C@H](CC[C@@H]4[C@@]5(C)CC[C@H](O)C(C)(C)[C@@H]5CC[C@]43C)[C@@H]12 [BETULINIC ACID]
inhibition at 20000 µM [2]: 21%

BACITRACIN
20mM inhibition LmjIPCS ([2]; NINDS set screen, single concentration printed as 20mM): 44%

CN(C)C(=O)Oc1cccc([N+](C)(C)C)c1 [NEOSTIGMINE BROMIDE]
inhibition at 20000 µM [2]: 20%

CC(C(=O)O)c1ccc(-c2ccccc2)c(F)c1 (stereo not drawn) [FLURBIPROFEN]
inhibition [2]: 4%

C1N2CN3CN1CN(C2)C3 [METHENAMINE]
inhibition [2, 4]: 6%

O=C1NC(=O)C(c2ccccc2)(c2ccccc2)N1 [PHENYTOIN]
inhibition [2]: 14%

NS(=O)(=O)c1cc2c(cc1C(F)(F)F)NC(Cc1ccccc1)NS2(=O)=O (stereo not drawn) [BENDROFUMETHIAZIDE]
20mM inhibition LmjIPCS [2]: 63%

COc1cccc(OC)c1OCCNCC1COc2ccccc2O1 (stereo not drawn)
20mM inhibition LmjIPCS [2]: -4.65%

Cc1ccc(Cl)c(Nc2ccccc2C(=O)O)c1Cl [MECLOFENAMATE]
inhibition at 20000 µM [2]: 6%

COc1cc2c(cc1O)CCNC2C (stereo not drawn) [SALSOLINE]
20mM inhibition LmjIPCS [2]: 12%

C[C@]12CCC(=O)C(O)=C1CC[C@@H]1[C@@H]2CC[C@]2(C)C(=O)CC[C@@H]12 [FORMESTANE]
inhibition at 20000 µM [2]: 18%

C/C=C(\C)C(=O)O[C@H]1C[C@@H](OC(C)=O)[C@@]2(C(=O)OC)CO[C@H]3[C@@H](O)[C@@](C)([C@]45O[C@@]4(C)[C@H]4C[C@@H]5O[C@@H]5OC=C[C@@]54O)[C@H]4[C@]1(CO[C@]4(O)C(=O)OC)[C@@H]32 [AZADIRACHTIN]
inhibition at 20000 µM [2]: 3.53%
